In ChEMBL document CHEMBL3046378, “3-(6-Chloronicotinyl)-2-nitromethylene-thiazolidine as a New Class of Insecticide Acting against Lepidoptera Species” (1992):
The source made the active and inactive calls. The calls are words filed in the database; no cut-off is given here.

How the values were obtained:
[1] = test system: Spodoptera litura; assay: Insecticidal activity against Spodoptera litura measured 5 days after artificial infestation; assay type: functional
[2] = test system: Nephotettix cincticeps; assay: Insecticidal activity against Nephotettix cincticeps (green rice leafhopper) measured 5 days after artificial infestation; assay type: functional
[3] = test system: Plutella xylostella; assay: Insecticidal activity against Plutella xylostella (diamondback moth) measured 5 days after artificial infestation; assay type: functional
[4] = test system: Cnaphalocrocis medinalis; assay: Insecticidal activity against Cnaphalocrocis medinalis measured 5 days after artificial infestation; assay type: functional
[5] = test system: Spodoptera litura; assay: Insecticidal activity against Spodoptera litura at 1000 ppm measured 5 days after artificial infestation; assay type: functional, organism-based

Row | Compound | LC90 [1] [ppm] | LC90 [2] [ppm] | LC90 [3] [ppm] | LC90 [4] [ppm] | Activity [5]
1 | O=[N+]([O-])/N=C1\NCCN1Cc1ccc(Cl)nc1 [IMIDACLOPRID] | 40 | 0.32 | 200 | 200 | –
2 | O=[N+]([O-])/C=C1\NCCN1Cc1ccc(Cl)nc1 | 8 | 0.32 | 40 | 200 | –
3 | O=[N+]([O-])/C=C1\NCCS1 [2-(NITROMETHYLENE)THIAZOLIDINE] | – | 1000 | – | – | inactive
4 | O=[N+]([O-])/C=C1\CCCN1Cc1ccc(Cl)nc1 | 200 | 1.6 | – | – | –
5 | O=[N+]([O-])/N=c1\sccn1Cc1ccc(Cl)nc1 | 1000 | 0.32 | – | – | –
6 | O=[N+]([O-])/C=C1\OCCN1Cc1ccc(Cl)nc1 | 1000 | 8 | – | – | –
7 | O=[N+]([O-])C=C1NCCCS1 | 40 | 8 | 1000 | 200 | –
8 | O=[N+]([O-])/C=C1\SCCN1Cc1ccc(Cl)nc1 | 1.6 | 0.32 | 1.6 | 8 | –
9 | O=[N+]([O-])/N=C1\SCCN1Cc1ccc(Cl)nc1 | 200 | 1.6 | – | – | –
